Laboratory results from patent US10807952B2 (Achillion Pharmaceuticals, Inc., priority 2015, dated 2020).
Where a name gives a salt, the structure may show the parent alone.

What follows are compounds tested against Human Factor D (Homo sapiens (Human), UniProt P00746) (assay: Human Factor D assay (Z-L-Lys-SBzl / DTNB, absorbance at 405 nm)). Details: Table 3; Human Factor D 80 nM, assay of Example 13.
Assay type: biochemical
Procedure: Human Factor D (purified from human serum, Complement Technology, Inc.) at 80 nM final concentration was incubated with test compound at various concentrations for 5 minutes at room temperature in 50 mM Tris, 1M NaCl, pH 7.5. A synthetic substrate Z-L-Lys-SBzl and DTNB (Ellman's reagent) were added to final concentrations of 100 μM each. […] IC50 values were calculated by nonlinear regression of complement Factor D reaction rates as a function of test compound concentration.

Human Factor D, sequence (P00746 26-253): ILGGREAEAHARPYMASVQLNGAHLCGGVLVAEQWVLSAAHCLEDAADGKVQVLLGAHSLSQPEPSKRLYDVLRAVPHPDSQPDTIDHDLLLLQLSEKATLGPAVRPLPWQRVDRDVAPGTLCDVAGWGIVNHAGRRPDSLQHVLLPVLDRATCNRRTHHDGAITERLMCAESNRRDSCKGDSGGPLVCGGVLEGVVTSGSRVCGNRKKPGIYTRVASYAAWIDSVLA

SMILES | IC50 [µM]
CC(=O)n1cc(CC(=O)N2C[C@H](F)C[C@H]2C(=O)Nc2cccc(-c3ccccc3Cl)c2F)c2ccc(-c3cnc(C)nc3)cc21 [Compound 60, (2S,4R)-1-(2-(1-acetyl-6-(2-methylpyrimidin-5-yl)-1H-indol-3-yl)acetyl)-N-(2′-chloro-2-fluorobiphenyl-3-yl)-4-fluoropyrrolidine-2-carboxamide] | < 1
CC(=O)n1cc(CC(=O)N2C[C@H](F)C[C@H]2C(=O)Nc2cccc(Br)n2)c2ccc(-c3cnc(C)nc3)cc21 [Compound 61, (2S,4R)-1-(2-(1-acetyl-6-(2-methylpyrimidin-5-yl)-1H-indol-3-yl)acetyl)-N-(6-bromopyridin-2-yl)-4-fluoropyrrolidine-2-carboxamide] | < 1
NC(=O)c1nn(CC(=O)N2C[C@H](F)C[C@H]2C(=O)Nc2cccc(-c3ccc4nc(C(=O)O)[nH]c4c3Cl)c2F)c2ccccc12 [Compound 62, 6-(3-((2S,4R)-1-(2-(3-carbamoyl-1H-indazol-1-yl)acetyl)-4-fluoropyrrolidine-2-carboxamido)-2-fluorophenyl)-7-chloro-1H-benzo[d]imidazole-2-carboxylic acid] | < 1
CC(C)(C)OC(=O)N=S(C)(=O)c1cccc(-c2cccc(NC(=O)[C@@H]3C[C@@H](F)CN3C(=O)Cn3nc(C(N)=O)c4ccccc43)c2F)c1 (stereo partly drawn) [Compound 64, tert-butyl ((3′-((2S,4R)-1-(2-(3-carbamoyl-1H-indazol-1-yl)acetyl)-4-fluoropyrrolidine-2-carboxamido)-2′-fluoro-[1,1′-biphenyl]-3-yl)(methyl)(oxo)-[…]^6-sulfanylidene)-[…]^4-azanecarboxylate] | 1 to 10
CS(=N)(=O)c1cccc(-c2cccc(NC(=O)[C@@H]3C[C@@H](F)CN3C(=O)Cn3nc(C(N)=O)c4ccccc43)c2F)c1 (stereo partly drawn) [Compound 65, 1-(2-((2S,4R)-4-fluoro-2-(2-fluoro-3′-(S-methylsulfonimidoyl)biphenyl-3-ylcarbamoyl)pyrrolidin-1-yl)-2-oxoethyl)-1H-indazole-3-carboxamide] | 1 to 10
NC(=O)c1nn(CC(=O)N2C[C@H](F)C[C@H]2C(=O)Nc2cccc(-c3ccccc3Cl)c2F)c2cn[nH]c12 [Compound 66, 1-(2-((2S,4R)-2-(2′-chloro-2-fluorobiphenyl-3-ylcarbamoyl)-4-fluoropyrrolidin-1-yl)-2-oxoethyl)-1,4-dihydropyrazolo[4,3-c]pyrazole-3-carboxamide] | < 1
NC(=O)c1nn(CC(=O)N2C[C@H](F)C[C@H]2C(=O)Nc2cccc(-c3ccc4nonc4c3)c2F)c2ccccc12 [Compound 68, 1-(2-((2S,4R)-2-(3-(benzo[c][1,2,5]oxadiazol-5-yl)-2-fluorophenyl-carbamoyl)-4-fluoropyrrolidin-1-yl)-2-oxoethyl)-1H-indazole-3-carboxamide] | < 1
CC(=O)c1cn(CC(=O)N2C[C@H](F)C[C@H]2C(=O)Nc2cccc(Br)n2)c2ccc(S(C)(=O)=NC(=O)OC(C)(C)C)cc12 (stereo partly drawn) [Compound 69, tert-butyl ((3-acetyl-1-(2-((2S,4R)-2-((6-bromopyridin-2-yl)carbamoyl)-4-fluoropyrrolidin-1-yl)-2-oxoethyl)-1H-indol-5-yl)(methyl)(oxo)-[…]^6-sulfanylidene)-[…]^4-azanecarboxylate e( )] | < 1
CC(=O)c1cn(CC(=O)N2C[C@H](F)C[C@H]2C(=O)Nc2cccc(Br)n2)c2ccc(S(C)(=N)=O)cc12 (stereo partly drawn) [Compound 70, (2S,4R)-1-(2-(3-Acetyl-5-(S-methylsulfonimidoyl)-1H-indol-1-yl)acetyl)-N-(6-bromopyridin-2-yl)-4-fluoropyrrolidine-2-carboxamide hydrochloride] | < 1
NC(=O)c1nn(CC(=O)N2C[C@H](F)C[C@H]2C(=O)Nc2cccc(-c3n[nH]c4ccsc34)c2F)c2ccccc12 [Compound 71, 1-(2-((2S,4R)-4-Fluoro-2-((2-fluoro-3-(1H-thieno[3,2-c]pyrazol-3-yl)phenyl)carbamoyl)pyrrolidin-1-yl)-2-oxoethyl)-1H-indazole-3-carboxamide] | < 1
Cc1cc2c(s1)c(C(=N)N)nn2CC(=O)N1C[C@H](F)C[C@H]1C(=O)Nc1cccc(-c2ccccc2Cl)c1F [Compound 73, (2S,4R)-1-(2-(3-carbamimidoyl-5-methyl-1H-thieno[3,2-c]pyrazol-1-yl)acetyl)-N-(2′-chloro-2-fluorobiphenyl-3-yl)-4-fluoropyrrolidine-2-carboxamide] | < 1

Same assay, conditions: Table 4; Human Factor D 80 nM, assay of Example 13

SMILES | IC50 [µM]
COC(=O)c1cc(-c2cccc(NC(=O)[C@@H]3C[C@@H](F)CN3C(=O)Cn3nc(C(N)=O)c4ccccc43)c2F)cc2[nH]c(NC(=O)OC(C)(C)C)nc12 [Compound 75, methyl 2-((tert-butoxycarbonyl)amino)-6-(3-((2S,4R)-1-(2-(3-carbamoyl-1H-indazol-1-yl)acetyl)-4-fluoropyrrolidine-2-carboxamido)-2-fluorophenyl)-1H-benzo[d]imidazole-4-carboxylate] | > 10
COC(=O)c1cc(-c2cccc(NC(=O)[C@@H]3C[C@@H](F)CN3C(=O)Cn3nc(C(N)=O)c4ccccc43)c2F)cc2[nH]c(N)nc12 [Compound 76, methyl 2-amino-6-(3-((2S,4R)-1-(2-(3-carbamoyl-1H-indazol-1-yl)acetyl)-4-fluoropyrrolidine-2-carboxamido)-2-fluorophenyl)-1H-benzo[d]imidazole-4-carboxylate] | < 1
NC(=O)c1nn(CC(=O)N2C[C@H](F)C[C@H]2C(=O)Nc2cccc(-c3cc(C(=O)O)c4nc(N)[nH]c4c3)c2F)c2ccccc12 [Compound 77, 2-Amino-6-(3-((2S,4R)-1-(2-(3-carbamoyl-1H-indazol-1-yl)acetyl)-4-fluoropyrrolidine-2-carboxamido)-2-fluorophenyl)-1H-benzo[d]imidazole-4-carboxylic acid hydrochloride] | 1 to 10
NC(=O)c1cc(O)cc(CC(=O)N2C[C@H](F)C[C@H]2C(=O)Nc2cccc(-c3ccccc3Cl)c2F)c1 [Compound 78, (2S,4R)-1-(2-(3-carbamoyl-5-hydroxyphenyl)acetyl)-N-(2′-chloro-2-fluoro-[1,1′-biphenyl]-3-yl)-4-fluoropyrrolidine-2-carboxamide] | < 1
CC(=O)c1nn(CC(=O)N2C[C@H](F)C[C@H]2C(=O)Nc2cccc(-c3cc(C(=O)O)c4nc[nH]c4c3)c2F)c2ccccc12 [Compound 80, 6-(3-((2S,4R)-1-(2-(3-acetyl-1H-indazol-1-yl)acetyl)-4-fluoropyrrolidine-2-carboxamido)-2-fluorophenyl)-1H-benzo[d]imidazole-4-carboxylic acid] | < 1
COC(=O)Nc1nc2ccc(-c3cccc(NC(=O)[C@@H]4C[C@@H](F)CN4C(=O)Cn4nc(C(C)=O)c5ccccc54)c3F)c(Cl)c2[nH]1 [Compound 81, methyl (6-(3-((2S,4R)-1-(2-(3-acetyl-1H-indazol-1-yl)acetyl)-4-fluoropyrrolidine-2-carboxamido)-2-fluorophenyl)-7-chloro-1H-benzo[d]imidazol-2-yl)carbamate] | < 1
CC(=O)c1nn(CC(=O)N2C[C@H](F)C[C@H]2C(=O)Nc2cccc(-c3ccc4c(c3)CCC(=O)N4)c2F)c2ccccc12 [Compound 82, (2S,4R)-1-(2-(3-acetyl-1H-indazol-1-yl)acetyl)-4-fluoro-N-(2-fluoro-3-(2-oxo-1,2,3,4-tetrahydroquinolin-6-yl)phenyl)pyrrolidine-2-carboxamide] | < 1
CC(=O)c1nn(CC(=O)N2C[C@H](F)C[C@H]2C(=O)Nc2cccc(-c3ccc4nccnc4c3)c2F)c2ccccc12 [Compound 83, (2S,4R)-1-(2-(3-acetyl-1H-indazol-1-yl)acetyl)-4-fluoro-N-(2-fluoro-3-(quinoxalin-6-yl)phenyl)pyrrolidine-2-carboxamide] | < 1
CC(=O)c1nn(CC(=O)N2C[C@H](F)C[C@H]2C(=O)Nc2cccc(-c3ccc4ncn(CCN)c4c3Cl)c2F)c2ccccc12 [Compound 84, (2S,4R)-1-(2-(3-acetyl-1H-indazol-1-yl)acetyl)-N-(3-(1-(2-aminoethyl)-7-chloro-1H-benzo[d]imidazol-6-yl)-2-fluorophenyl)-4-fluoropyrrolidine-2-carboxamide] | 1 to 10
CC(=O)c1nn(CC(=O)N2C[C@H](F)C[C@H]2C(=O)Nc2cccc(-c3ccc4[nH]ccc4c3)c2F)c2ccccc12 [Compound 85, (2S,4R)-1-(2-(3-acetyl-1H-indazol-1-yl)acetyl)-4-fluoro-N-(2-fluoro-3-(1H-indol-5-yl)phenyl)pyrrolidine-2-carboxamide] | < 1
CC(=O)c1nn(CC(=O)N2[C@@H]3C[C@@H]3C[C@H]2C(=O)Nc2cccc(-c3cc(Cl)c4[nH]ccc4c3)c2F)c2ccccc12 [Compound 86, (1R,3S,5R)-2-(2-(3-acetyl-1H-indazol-1-yl)acetyl)-N-(3-(7-chloro-1H-indol-5-yl)-2-fluorophenyl)-2-azabicyclo[3.1.0]hexane-3-carboxamide] | > 10
NC(=O)c1nn(CC(=O)N2C[C@H](F)C[C@H]2C(=O)Nc2cccc(-c3ccc4c(c3)NC(=O)C4)c2F)c2ccccc12 [Compound 88, 1-(2-((2S,4R)-4-fluoro-2-((2-fluoro-3-(2-oxoindolin-6-yl)phenyl)carbamoyl)pyrrolidin-1-yl)-2-oxoethyl)-1H-indazole-3-carboxamide] | < 1
N#CNC(=O)c1ccc(Cl)c(-c2cccc(NC(=O)[C@@H]3C[C@@H](F)CN3C(=O)Cn3nc(C(N)=O)c4ccccc43)c2F)c1 [Compound 89, 1-(2-((2S,4R)-2-((2′-chloro-5′-(cyanocarbamoyl)-2-fluoro-[1,1′-biphenyl]-3-yl)carbamoyl)-4-fluoropyrrolidin-1-yl)-2-oxoethyl)-1H-indazole-3-carboxamide] | < 1
NC(=O)c1nn(CC(=O)N2C[C@H](F)C[C@H]2C(=O)Nc2cccc(-c3cc(Cl)c4[nH]ccc4c3)c2F)c2ccccc12 [Compound 90, 1-(2-((2S,4R)-2-((3-(7-chloro-1H-indol-5-yl)-2-fluorophenyl)carbamoyl)-4-fluoropyrrolidin-1-yl)-2-oxoethyl)-1H-indazole-3-carboxamide] | < 1
